Results as given in ChEMBL document CHEMBL4339187, “Discovery of a new class of MTH1 inhibitor by X-ray crystallographic screening” (Eur J Med Chem, 2019).
Active and inactive are the calls of the source. The calls are words filed in the database; no cut-off is given here.

How the values were obtained:
[1] = target: Oxidized purine nucleoside triphosphate hydrolase (Homo sapiens) (UniProt P36639); experiment: Binding affinity to recombinant C-terminal 6xHis-tagged MTH1 (3 to 156 residues) (unknown origin) expressed in Escherichia coli BL21(DE3) cells assessed as decrease in fluorescence intensity at 1 to 10 uM after 3 mins by tryptophan fluorescence spectroscopy
Escherichia coli = experiment: Inhibition of Escherichia coli inorganic pyrophosphatase assessed as reduction in orthophosphate formation at 0.3 to 10 uM measured after 40 using pyrophosphate as substrate by malachite green dye based absorbance assay
[2] = target: Oxidized purine nucleoside triphosphate hydrolase (Homo sapiens) (UniProt P36639); experiment: Binding affinity to recombinant C-terminal 6xHis-tagged MTH1 (3 to 156 residues) (unknown origin) expressed in Escherichia coli BL21(DE3) cells assessed as decrease in fluorescence intensity at 1 to 200 uM after 3 mins by tryptophan fluorescence spectroscopy

SMILES	Activity [1]	inhibition (Escherichia coli)	Activity [2]
CNc1cc(-c2cccc(Cl)c2Cl)nc(N)n1	Active		
COc1c(O)cc2oc3cc4c(c(O)c3c(=O)c2c1CC=C(C)C)CCC(C)(C)O4	Active	inactive	
Nc1nc2c(ncn2[C@H]2C[C@H](O)[C@@H](COP(=O)(O)OP(=O)(O)OP(=O)(O)O)O2)c(=O)[nH]1	Active		Active
COc1c(O)cc2oc3cc(O)c(CC=C(C)C)c(O)c3c(=O)c2c1CC=C(C)C		inactive	
CC(C)=CCc1c(O)cc2oc3cc(O)c(O)c(CC=C(C)C)c3c(=O)c2c1O	Active		
